{"source": "paper PMC7733455", "about": "“A novel multistage antiplasmodial inhibitor targeting Plasmodium falciparum histone deacetylase 1” (Cell Discovery, 2020)", "key": {"hHDAC2": {"biological_target": "T1, hHDAC2 (Homo sapiens, UniProt Q92769)", "T1 construct": "purchased BPS Bioscience 5002", "T1 sequence (Q92769 whole entry)": "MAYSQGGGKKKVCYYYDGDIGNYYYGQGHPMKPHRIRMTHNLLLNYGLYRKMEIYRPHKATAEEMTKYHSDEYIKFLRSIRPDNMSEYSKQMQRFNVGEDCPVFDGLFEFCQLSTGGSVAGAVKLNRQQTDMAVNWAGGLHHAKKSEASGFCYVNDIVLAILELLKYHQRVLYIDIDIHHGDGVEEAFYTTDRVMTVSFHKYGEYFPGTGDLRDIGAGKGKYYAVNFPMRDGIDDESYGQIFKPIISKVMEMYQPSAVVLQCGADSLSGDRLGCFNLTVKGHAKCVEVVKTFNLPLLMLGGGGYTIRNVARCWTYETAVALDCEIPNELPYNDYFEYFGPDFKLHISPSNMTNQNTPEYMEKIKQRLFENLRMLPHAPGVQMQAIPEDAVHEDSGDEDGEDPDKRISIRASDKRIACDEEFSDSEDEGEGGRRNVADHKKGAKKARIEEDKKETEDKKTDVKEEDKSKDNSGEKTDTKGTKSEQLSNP", "test": "Human HDAC inhibition assay, hHDAC2", "assay_type": "biochemical", "details": "performed only once; read-out: Inhibitory Activity IC50, hHDAC2", "method": "(§1) SAHA and suramin were used as positive controls. The tested compounds were dissolved into 20 mM stock in 100% DMSO. […] Ten microliters of trypsin and Ac-peptide substrate/Tris buffer solution were added to start the reaction, followed by a 1-h incubation at room temperature for HDACs 1–3 and 6. Ten microliters of Ac-peptide substrate/Tris buffer solution was added to start the reaction, followed by a 4-h incubation at room temperature and a further 2-h incubation with trypsin solution for HDAC8 and Sirt 2. […] This experiment was performed only once."}, "[1]": {"system": "P. falciparum isolate 6218", "test": "3-day SYBR Green I GIA, field isolate 6218", "assay_type": "cell-based", "details": "Plasmodium falciparum; artemisinin- and piperaquine-resistant isolate; read-out: Resistant isolates EC50, 6218", "method": "(§2) A 3-day SYBR Green I inhibition EC50 assay was performed as described previously. Briefly, highly synchronized ring-stage parasites by 5% sorbitol (1% parasitemia and 2% hematocrit) were incubated in a 96-well plate with compounds in a total volume of 200 μL. […] The parasites were cultured for 72 h before SYBR Green I staining as described above. The EC50 was calculated by GraphPad Prism. DHA was used as a positive control, and the final concentration of DMSO was 1%."}, "hSirt2": {"biological_target": "T2, hSirt2 (Homo sapiens, UniProt Q8IXJ6)", "T2 construct": "purchased BPS Bioscience 50013", "T2 sequence (Q8IXJ6 whole entry)": "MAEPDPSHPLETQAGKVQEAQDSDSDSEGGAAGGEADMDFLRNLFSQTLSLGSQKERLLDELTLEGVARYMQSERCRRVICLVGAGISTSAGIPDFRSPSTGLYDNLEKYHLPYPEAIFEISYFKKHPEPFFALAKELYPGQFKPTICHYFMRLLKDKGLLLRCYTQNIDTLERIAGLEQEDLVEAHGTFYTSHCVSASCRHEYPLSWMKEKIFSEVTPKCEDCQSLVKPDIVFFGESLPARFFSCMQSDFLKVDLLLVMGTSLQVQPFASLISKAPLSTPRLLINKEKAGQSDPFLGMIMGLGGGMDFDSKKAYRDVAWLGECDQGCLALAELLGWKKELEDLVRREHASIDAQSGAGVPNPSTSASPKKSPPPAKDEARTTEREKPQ", "test": "Human HDAC inhibition assay, hSirt2", "assay_type": "biochemical", "details": "performed only once; read-out: Inhibitory Activity IC50, hSirt2", "method": "as §1"}, "P. falciparum CP286": {"system": "P. falciparum CP286", "test": "3-day SYBR Green I GIA, strain CP286", "assay_type": "cell-based", "details": "Plasmodium falciparum; CP286 resistant to pyrimethamine and chloroquine; read-out: Resistant isolates EC50, CP286", "method": "as §2"}, "P. falciparum 3D7 [2]": {"system": "P. falciparum 3D7", "test": "Stage-specific parasite inhibition assay", "assay_type": "cell-based, Plasmodium falciparum", "details": "40 nM", "method": "To analyze the stage-specific parasite inhibition, highly synchronized parasites were cultured in 24-well plates with a starting parasitemia of 1% at a hematocrit of 2%. After 12 h of culture with the tested compounds at a concentration of 40 nM, parasites were washed three times to remove the compounds, and parasitemia was diluted 1:40 by new RBCs into CM for another 4 days of culture. DMSO was used as a blank control. Parasitemia was counted by flow cytometry. Flow cytometry was conducted as described previously. Briefly, the parasite-infected RBCs were fixed in 4% formaldehyde/0.015% glutaraldehyde for 30 min at room temperature and incubated with 500 μL of a SYBR green staining solution (Invitrogen) (1:5000) in 1× PBS (phosphate-buffered saline, pH 7.4, without calcium and magnesium). Cells were washed three times with 1× PBS prior to flow-cytometry analysis on a MoFloAstrios EQ instrument (BECKMAN COULTER). RBCs (5 × 10^5) were measured (excitation 488 nm; emission detection FL1 513 ± 26 nm), and a value of 5 on FL1 (SYBR Green intensity) was applied as a threshold to identify (gate) the infected RBCs (iRBCs). Acquired data were processed using the FlowJo software (v.10.0.5)."}, "3D7^HDAC1-glmS": {"system": "3D7^HDAC1-glmS", "test": "Sensitivity of transgenic parasites to JX21108, 3D7^HDAC1-glmS", "assay_type": "cell-based, Plasmodium falciparum", "method": "Highly synchronized schizont-stage parasites were prepared and treated as described above, with adjustments. […] After washing, parasites were cultured in new CM for another 68 h. Parasite growth was monitored by SYBR Green I staining, as described above. The EC50 was calculated by GraphPad Prism."}, "[3]": {"system": "parasite histone H3 acetylation", "test": "Western blot of histone H3 acetylation in parasites", "assay_type": "cell-based, Plasmodium falciparum", "details": "4 h treatment of asynchronous 3D7; quisinostat/JX21108 5 and 20 nM, SAHA 500 nM", "method": "Then the parasite samples were harvested and treated with 0.15% saponin to remove the RBC proteins and sonicated in 1% NP40 lysis buffer. After centrifugation at 12,000× g for 15 min, the supernatant was resuspended in a routine SDS loading buffer. Parasite proteins were separated by 10% SDS-PAGE and transferred onto PVDF membranes (Millipore). […] A2348) followed by a secondary antibody conjugated with HRP (Jackson Immuno Research Laboratories). The chemiluminescent HRP substrate Immobilon Western Kit (Millipore) was used for signal detection."}, "P. falciparum 3D7 [4]": {"system": "P. falciparum 3D7", "test": "3-day SYBR Green I growth inhibition assay (GIA), strain 3D7", "assay_type": "cell-based, Plasmodium falciparum", "details": "3-day SYBR Green I GIA, drug-sensitive strain 3D7, read-out: Antiplasmodial activity EC50, 3D7", "in_short": "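Sorbitol-synchronized ring-stage parasites at 1% parasitemia and 2% hematocrit, cultured 72 h with compounds at 1% DMSO final. Growth read by SYBR Green I staining. EC50 from curve fitting.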"}, "[5]": {"system": "asynchronous 3D7 parasites", "test": "Time- and dose-dependent parasite inhibition assay", "assay_type": "cell-based, Plasmodium falciparum", "method": "Asynchronous parasites (2% parasitemia, 4% hematocrit) were treated with the tested compounds at a concentration of 10, 30, 60, or 100 nM, respectively. At 3, 6, 12, and 24 h post treatment, parasitemia of each sample was detected by flow cytometry to investigate the time-dependent activity. Parasites from the same treatment were further washed to remove compounds, and parasitemia was diluted 1:40 by new RBCs into CM for an additional 4 days of culture. Parasitemia of each sample was detected by flow cytometry as described above to investigate the dose-dependent activity. DMSO was used as a blank control."}, "[6]": {"system": "P. falciparum isolate 6320", "test": "3-day SYBR Green I GIA, field isolate 6320", "assay_type": "cell-based", "details": "Plasmodium falciparum; artemisinin- and piperaquine-resistant isolate; read-out: Resistant isolates EC50, 6320", "method": "as §2"}, "[7]": {"test": "Liver microsome metabolism assay, mouse", "assay_type": "in vitro ADME", "details": "for half-life at 1 µM: mouse, liver microsomes", "method": "Liver microsomes (0.5 mg/mL) were purchased from Corning. Ketanserin was selected as a positive control. The tested compounds were first dissolved in DMSO to a concentration of 10 mM and then diluted to 0.5 mM with acetonitrile. Liver microsome buffer was used to dilute the compounds to a working concentration of 1.5 µM, 30 µL of which was mixed with 15 µL of 6 mM NADPH at 37 °C. At 0, 5, 15, 30, and 45 min after incubation, 135 µL of acetonitrile was added to quench the reaction. The mixture was shaken on a vortex mixer (IKA, MTS 2/4) for 10 min at 600 rpm/min and then centrifuged at 5594× g for 15 min (Thermo Multifuge×3R). The supernatant was diluted 1:1 into distilled water, and analyzed by LC-MS/MS."}, "P. falciparum 3D7 [8]": {"system": "P. falciparum 3D7", "test": "Ring-stage survival assay (RSA), sensitive strain 3D7", "assay_type": "cell-based, Plasmodium falciparum", "details": "700 nM"}}, "note": "Like-named read-outs stand apart in the source and are kept apart here.", "data": [{"smiles": "Cl.Cn1cc(CN2CCC3(CCN(c4ncc(C(=O)NO)cn4)C3)C2)c2cc(C#N)ccc21", "note": "(stereo not shown) [JX21108]", "values": [{"measurement": "IC50", "setting": "hHDAC2", "value": 4.6, "unit": "nM"}, {"measurement": "EC50", "setting": "[1]", "value": "2.2 ± 0.2", "unit": "nM"}, {"measurement": "IC50", "setting": "hSirt2", "value": "> 10000", "unit": "nM"}, {"measurement": "EC50", "setting": "P. falciparum CP286", "value": "7 ± 0.6", "unit": "nM"}, {"measurement": "stage dependence of parasite killing (parasitemia at 4 dpi)", "setting": "P. falciparum 3D7 [2]; 12-h treatment", "value": "treatment at the schizont stage was more active in parasite killing than that at the ring and trophozoite stages"}, {"measurement": "asexual development of parasites to the next cycle", "setting": "P. falciparum 3D7 [2]; 12-h treatment at ring, trophozoite and schizont stages", "value": "strongly block the asexual development of parasites to the next cycle"}, {"measurement": "shift in sensitivity on PfHDAC1 KD", "setting": "3D7^HDAC1-glmS; 3D7^HDAC1-glmS vs 3D7^HDAC1-TY1", "value": 5.5, "unit": "fold"}, {"measurement": "EC50", "setting": "3D7^HDAC1-glmS; Plasmodium falciparum, 3D7, 4 h, read-out: EC50 for 3D7^HDAC1-glmS", "value": "20.5 ± 6.95", "unit": "nM"}, {"measurement": "pan-acetylation levels of parasite histone H3", "setting": "[3]", "value": "greatly increased the pan-acetylation levels of parasite histone H3"}, {"measurement": "EC50", "setting": "P. falciparum 3D7 [4]", "value": "3.57 ± 0.06", "unit": "nM"}, {"measurement": "EC50", "setting": "P. falciparum 3D7 [4]; Plasmodium falciparum, 3D7, 72 h", "value": 3.6, "unit": "nM"}, {"measurement": "parasite growth after 3 h of treatment", "setting": "[5]; 100 nM, 3 h, washed, 4 days culture", "value": "completely blocked parasite growth"}, {"measurement": "parasitemia measured 4 days after 6-h treatment", "setting": "[5]; 6-h treatment, washed, 1:40 dilution, 4 days culture", "value": "substantial reduction in parasitemia"}, {"measurement": "asexual growth of 3D7 after 12- and 24-h treatments", "setting": "[5]; 10-100 nM, parasitemia immediately after treatment", "value": "significantly inhibited the asexual growth of 3D7 parasites"}, {"measurement": "EC50", "setting": "[6]", "value": "2.6 ± 0.2", "unit": "nM"}, {"measurement": "CLint scaled at 1 µM", "setting": "[7]; mouse liver microsomes, read-out: CL in liver microsomes", "value": 7.32, "unit": "mL/min/kg"}, {"measurement": "half-life at 1 µM", "setting": "[7]; read-out: T1/2 in liver microsomes", "value": 12.4, "unit": "h"}, {"measurement": "half-life at 1 µM", "setting": "[7]; read-out: half-life in mouse liver microsomes (converted)", "value": 12.4, "unit": "h"}, {"measurement": "RSA effect on ring-stage parasites of 3D7", "setting": "P. falciparum 3D7 [8]", "value": "efficiently killed the ring-stage parasites"}]}]}
